Target: T1, AR protein in VCaP cells (Homo sapiens, UniProt P10275)
T1 construct: endogenous in cells; host or cells: VCaP cells
T1 sequence (P10275 1-920): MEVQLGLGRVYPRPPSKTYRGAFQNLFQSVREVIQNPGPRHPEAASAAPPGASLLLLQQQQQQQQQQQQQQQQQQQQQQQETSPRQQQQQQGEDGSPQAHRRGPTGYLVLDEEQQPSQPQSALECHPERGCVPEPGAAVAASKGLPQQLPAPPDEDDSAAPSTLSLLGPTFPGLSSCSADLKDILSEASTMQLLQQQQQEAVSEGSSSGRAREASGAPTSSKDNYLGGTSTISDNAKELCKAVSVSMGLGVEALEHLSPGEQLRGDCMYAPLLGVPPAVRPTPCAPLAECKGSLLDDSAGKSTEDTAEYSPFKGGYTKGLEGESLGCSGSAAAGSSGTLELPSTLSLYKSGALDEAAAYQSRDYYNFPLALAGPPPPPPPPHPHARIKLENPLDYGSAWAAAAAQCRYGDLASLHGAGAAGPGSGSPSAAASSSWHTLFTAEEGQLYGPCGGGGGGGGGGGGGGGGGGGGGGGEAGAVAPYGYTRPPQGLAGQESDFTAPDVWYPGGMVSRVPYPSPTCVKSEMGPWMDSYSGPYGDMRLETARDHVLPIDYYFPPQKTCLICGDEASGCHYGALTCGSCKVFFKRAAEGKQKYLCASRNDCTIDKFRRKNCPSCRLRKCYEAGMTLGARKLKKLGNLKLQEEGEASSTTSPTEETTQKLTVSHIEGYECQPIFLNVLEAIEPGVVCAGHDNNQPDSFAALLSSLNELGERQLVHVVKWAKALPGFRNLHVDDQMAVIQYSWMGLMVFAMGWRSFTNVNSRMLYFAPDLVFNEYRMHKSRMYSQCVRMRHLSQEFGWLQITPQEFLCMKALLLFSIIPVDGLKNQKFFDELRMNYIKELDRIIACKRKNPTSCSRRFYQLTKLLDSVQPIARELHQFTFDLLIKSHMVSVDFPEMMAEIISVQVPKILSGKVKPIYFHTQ
Assay: VCAP AR Degradation Assay (AR ELISA, 24 h)
Assay type: cell-based
Conditions: for Y (lowest measured AR level normalized to DMSO control): AR degradation efficiency; for DC50: concentration of compound when AR level = 50% of DMSO control, read-out: DC50
Summary of the method: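 VCaP cells in DMEM with 8% FBS exposed for 24 h at 37° C to a 10-point, 1:3 series (final top concentration […]; 0.1% DMSO control). Lysate AR measured by sandwich ELISA and normalized to DMSO as percent of control. DC50, EC50 and lowest AR level (Y) from four-parameter logistic fit.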

| Compound | Y (lowest measured AR level normalized to DMSO control) | DC50 [nM] |
| --- | --- | --- |
| CCc1cc(N2C(=S)N(c3cnc(C#N)c(C(F)(F)F)c3)C(=O)C23CCC3)ccc1OCCC1CCN([C@@H](C)C(=O)Nc2cc(NC3CCC(=O)NC3=O)ccc2F)CC1 (stereo partly drawn) [Cmpd 85, (2S)-2-(4-(2-(4-(7-(6-cyano-5-(trifluoromethyl)pyridin-3-yl)-8-oxo-6-thioxo-5,7-diazaspiro[3.4]octan-5-yl)-2-ethylphenoxy)ethyl)piperidin-1-yl)-N-(5-(2,6-dioxopiperidin-3-ylamino)-2-fluorophenyl)propanamide] | * (0<Y<=25%) | 100 to 500 |
| CCc1cc(N2C(=S)N(c3cnc(C#N)c(C(F)(F)F)c3)C(=O)C23CCC3)ccc1OCCC1CCN([C@H](C)C(=O)Nc2cc(NC3CCC(=O)NC3=O)ccc2F)CC1 (stereo partly drawn) [Cmpd 86, (2R)-2-(4-(2-(4-(7-(6-cyano-5-(trifluoromethyl)pyridin-3-yl)-8-oxo-6-thioxo-5,7-diazaspiro[3.4]octan-5-yl)-2-ethylphenoxy)ethyl)piperidin-1-yl)-N-(5-(2,6-dioxopiperidin-3-ylamino)-2-fluorophenyl)propanamide] | * (0<Y<=25%) | 100 to 500 |
| CCc1cc(N2C(=S)N(c3cnc(C#N)c(C(F)(F)F)c3)C(=O)C2(C)C)ccc1OC1C[C@H]2CC[C@@H](C1)N2CC(=O)Nc1cccc(NC2CCC(=O)NC2=O)c1 (stereo partly drawn) [Cmpd 87, 2-((1R,3s,5S)-3-(4-(3-(6-cyano-5-(trifluoromethyl)pyridin-3-yl)-5,5-dimethyl-4-oxo-2-thioxoimidazolidin-1-yl)-2-ethylphenoxy)-8-azabicyclo[3.2.1]octan-8-yl)-N-(3-(2,6-dioxopiperidin-3-ylamino)phenyl)acetamide] | *** (35%<Y<50%) | 500 to 1000 |
| CCc1cc(N2C(=S)N(c3ccc(C#N)c(C(F)(F)F)c3)C(=O)C2(C)C)ccc1OCCC1(F)CCN(CC(=O)Nc2cccc(NC3CCC(=O)NC3=O)c2)CC1 (stereo not drawn) [Cmpd 88, 2-(4-(2-(4-(3-(4-cyano-3-(trifluoromethyl)phenyl)-5,5-dimethyl-4-oxo-2-thioxoimidazolidin-1-yl)-2-ethylphenoxy)ethyl)-4-fluoropiperidin-1-yl)-N-(3-(2,6-dioxopiperidin-3-ylamino)phenyl)acetamide] | * (0<Y<=25%) | < 100 |
| CCc1cc(N2C(=S)N(c3cnc(C#N)c(C(F)(F)F)c3)C(=O)C2(C)C)ccc1OCCC1(F)CCN(CC(=O)Nc2cccc(NC3CCC(=O)NC3=O)c2)CC1 (stereo not drawn) [Cmpd 89, 2-(4-(2-(4-(3-(6-cyano-5-(trifluoromethyl)pyridin-3-yl)-5,5-dimethyl-4-oxo-2-thioxoimidazolidin-1-yl)-2-ethylphenoxy)ethyl)-4-fluoropiperidin-1-yl)-N-(3-(2,6-dioxopiperidin-3-ylamino)phenyl)acetamide] | * (0<Y<=25%) | < 100 |
| CCc1cc(N2C(=S)N(c3ccc(C#N)c(C(F)(F)F)c3)C(=O)C2(C)C)ccc1OCCC1(F)CCN(CC(=O)Nc2cc(Cl)cc(NC3CCC(=O)NC3=O)c2)CC1 (stereo not drawn) [Cmpd 90, N-(3-chloro-5-(2,6-dioxopiperidin-3-ylamino)phenyl)-2-(4-(2-(4-(3-(4-cyano-3-(trifluoromethyl)phenyl)-5,5-dimethyl-4-oxo-2-thioxoimidazolidin-1-yl)-2-ethylphenoxy)ethyl)-4-fluoropiperidin-1-yl)acetamide] | * (0<Y<=25%) | < 100 |
| CC(C)c1cc(N2C(=S)N(c3ccc(C#N)c(C(F)(F)F)c3)C(=O)C2(C)C)ccc1OCC[C@@H]1CCN(CC(=O)Nc2cccc(NC3CCC(=O)NC3=O)c2)[C@H](C)C1 (stereo partly drawn) [Cmpd 91, 2-((2R,4R)-4-(2-(4-(3-(4-cyano-3-(trifluoromethyl)phenyl)-5,5-dimethyl-4-oxo-2-thioxoimidazolidin-1-yl)-2-isopropylphenoxy)ethyl)-2-methylpiperidin-1-yl)-N-(3-(2,6-dioxopiperidin-3-ylamino)phenyl)acetamide] | ** (25%<Y<=35%) | 500 to 1000 |
| CC(C)c1cc(N2C(=S)N(c3ccc(C#N)c(C(F)(F)F)c3)C(=O)C2(C)C)cnc1OCC[C@H]1C[C@@H](C)N(CC(=O)Nc2cccc(NC3CCC(=O)NC3=O)c2)[C@@H](C)C1 (stereo partly drawn) [Cmpd 94, 2-((2S,4r,6R)-4-(2-((5-(3-(4-cyano-3-(trifluoromethyl)phenyl)-5,5-dimethyl-4-oxo-2-thioxoimidazolidin-1-yl)-3-isopropylpyridin-2-yl)oxy)ethyl)-2,6-dimethylpiperidin-1-yl)-N-(3-((2,6-dioxopiperidin-3-yl)amino)phenyl)acetamide] | ** (25%<Y<=35%) | 500 to 1000 |
| CCc1cc(N2C(=S)N(c3ccc(C#N)c(C(F)(F)F)c3)C(=O)C2(C)C)cnc1O[C@H]1C[C@@H](C)N(CC(=O)Nc2cccc(NC3CCC(=O)NC3=O)c2)[C@@H](C)C1 (stereo partly drawn) [Cmpd 95, 2-((2R,4r,6S)-4-((5-(3-(4-cyano-3-(trifluoromethyl)phenyl)-5,5-dimethyl-4-oxo-2-thioxoimidazolidin-1-yl)-3-ethylpyridin-2-yl)oxy)-2,6-dimethylpiperidin-1-yl)-N-(3-((2,6-dioxopiperidin-3-yl)amino)phenyl)acetamide] | ** (25%<Y<=35%) | 500 to 1000 |
